Source: patent US20170143712A1, “Methods of Treating Cancers, Immune and Autoimmune Diseases, and Inflammatory Diseases Based on BTK Occupancy and BTK Resynthesis Rate” (Acerta Pharma B.V., priority 2014, published 2017)

Columns and labels:
Assay type in all cases: in vivo
[1] = tested on: systemic lupus erythematosus (SLE) in MRL/MpJFASlpr mice; assay: MRL/MpJFASlpr mouse model of systemic lupus erythematosus; details: for Histopathology Glomerulus Diameter / Histopathology Summed Score / Kidney (paired) Weight (g) / Change in Body Weight (g) wk 1-12 / Histopathology Interstitial Inflammation: mean (SE); for absolute kidney weights, reduction vs Vehicle Disease Controls / absolute mesenteric lymph node weights, reduction vs Vehicle Disease Controls: term animals
Procedure: A study designed to determine the effects of candidate anti-inflammatory agent Formula (II) in oral (PO), daily (QD) administration in the treatment of systemic lupus erythematosus (SLE) in MRL/MpJFASlpr mice. Formula (II) was preformulated in vehicle (0.4% HPMC, 0.1% Tween 80, with simethicone for antifoaming). The female MRL/MpJFASlpr mice were dosed with vehicle or Formula (II) (1, 5, or 25 mg/kg) daily (QD) by the oral (PO) route dosing, or they were dosed QD by the intraperitoneal (IP) route with the reference compound cyclophosphamide (15 mg/kg). Prior to dosing, the candidate anti-inflammatory agent was reconstituted either by vortexing or stirring. […]
Female MRL/MpJFASlpr mice (n=50) that were 8-9 weeks old and weighed approximately 28-41 grams (mean 34 g) at enrollment (mouse age approx. 12 weeks) were obtained from The Jackson Laboratory, Bar Harbor, Me. (stock number 000485). These mice were housed 3-5/cage in shoe-box polycarbonate cages with wire tops, wood chip bedding, and suspended food and water bottles. No concurrent medications were given.
When they were 12 weeks old (study day 0), the female MRL/MpJFASlpr mice (n=10/group) were randomized by body weight into 5 groups as shown above. Treatment was initiated after randomization and continued for […] (mouse age 12 weeks to 23 weeks).
Starting on study week one, and then every week thereafter urine from each animal was tested for proteinuria using the Clinitech Multistick test strip (Bayer). The animals were also observed daily for significant clinical signs, moribundity and mortality. […] Efficacy evaluation was based on animal body weights, proteinuria analysis, lymphadenopathy scores, skin lesion scores, organ weights, anti-dsDNA titers, clinical chemistry parameters, and histopathologic evaluation of the kidneys.
Any animals showing signs of morbundity were terminated immediately. At necropsy (3 h post-dose, mouse age 23 weeks), all remaining animals were anesthetized with Isoflurane and bled via cardiac puncture for serum and plasma (Li Heparin). The animals were bled to exsanguinate then euthanized by cervical dislocation. Spleens, kidneys (paired), and lymph nodes were collected and weighed. Kidneys were collected into 10% neutral buffered formalin (NBF). Spleens were placed in RPMI 1% FBS media for splenocyte isolation. Serum samples for potential clinical chemistry analysis were stored frozen at −80° C. until shipment to Antech Diagnostics. Plasma samples were stored frozen at −80° C. for mouse antidsDNA IgG analysis by ELISA.
Blood samples were drawn via cardiac puncture from Isoflurane anesthetized animals into serum separator microtainer tubes for clinical chemistries. Samples were shipped to Antech Diagnostics for analysis.

BTK = BTK (Homo sapiens, UniProt Q06187); assay: BTK target occupancy in CD5+/CD19+ tumor cells of relapsed/refractory CLL patients
Chain of BTK (Q06187 whole entry): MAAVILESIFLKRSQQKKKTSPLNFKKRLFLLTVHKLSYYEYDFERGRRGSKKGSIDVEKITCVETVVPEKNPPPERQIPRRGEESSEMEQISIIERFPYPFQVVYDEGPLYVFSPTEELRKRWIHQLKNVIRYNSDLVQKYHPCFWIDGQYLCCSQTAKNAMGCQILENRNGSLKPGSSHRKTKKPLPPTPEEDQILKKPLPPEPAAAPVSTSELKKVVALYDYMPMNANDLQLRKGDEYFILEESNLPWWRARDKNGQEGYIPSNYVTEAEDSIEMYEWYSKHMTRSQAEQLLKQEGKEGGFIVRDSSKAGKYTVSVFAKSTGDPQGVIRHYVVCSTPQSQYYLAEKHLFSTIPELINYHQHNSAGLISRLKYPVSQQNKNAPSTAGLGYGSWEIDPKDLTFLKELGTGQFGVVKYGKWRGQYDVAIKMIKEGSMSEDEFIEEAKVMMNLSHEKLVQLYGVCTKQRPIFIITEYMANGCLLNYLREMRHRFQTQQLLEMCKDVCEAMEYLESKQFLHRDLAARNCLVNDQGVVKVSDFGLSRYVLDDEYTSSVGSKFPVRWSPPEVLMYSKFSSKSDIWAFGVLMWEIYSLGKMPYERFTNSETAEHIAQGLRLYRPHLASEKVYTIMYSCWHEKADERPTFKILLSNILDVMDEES
Procedure: Peripheral blood samples were obtained over time and BTK target occupancy was evaluated using a BTK active-site specific probe in an ELISA assay.

[2] = Rat pharmacokinetics, oral gavage vs dietary administration in chow
Procedure: To evaluate the effects of continuous low dose administration versus oral gavage administration of Formula (II), six male rats per group were treated with oral gavage administration of vehicle or Formula (II) at a dose of 30 mg/kg/day for 14 days. Six male rats per group were treated with dietary Formula (II) in chow at concentrations of 100 and 500 ppm; a control group (no vehicle, no chow) was also included in the study. All animals were evaluated for pharmacokinetics on Day 14, during the night cycle to accommodate the dietary groups. The spleens were collected at necroscopy and splenocytes were harvested and cryopreserved for BTK target occupancy analysis. The presence of inactivated BTK in normal splenocytes was measured using a BTK active-site specific probe in an ELISA assay. Plasma concentrations of Formula (II) were measured using liquid chromatography/mass spectroscopy; pharmacokinetic parameters were estimated using WinNonlin (Pharsight, Cetara).

[3] = 1 mg/kg PO QD, term animals only
[4] = 5 mg/kg PO QD, term animals only
[5] = 25 mg/kg PO QD, term animals only

Compound: CC#CC(=O)N1CCC[C@H]1c1nc(-c2ccc(C(=O)Nc3ccccn3)cc2)c2c(N)nccn12 [Formula (II), (S)-4-(8-amino-3-(1-(but-2-ynoyl)pyrrolidin-2-yl)imidazo[1,5-a]pyrazin-1-yl)-N-(pyridin-2-yl)benzamide]
- Percent Survival ([1]; 1 mg/kg PO QD): 100%
- Histopathology Glomerulus Diameter ([1]; 1 mg/kg PO QD, All Animals): *87.78 (3.82)
- Histopathology Summed Score ([1]; 1 mg/kg PO QD, All Animals): 7.70 (1.07)
- Kidney (paired) Weight (g) ([1]; 1 mg/kg PO QD, All Animals): 0.576 (0.03) g
- Change in Body Weight (g) wk 1-12 ([1]; 1 mg/kg PO QD, Term Animals): 8.10 (0.66) g
- Histopathology Glomerulus Diameter ([1]; 1 mg/kg PO QD, Term Animals): 87.78 (3.82)
- Histopathology Summed Score ([1]; 1 mg/kg PO QD, Term Animals): 7.70 (1.07)
- Kidney (paired) Weight (g) ([1]; 1 mg/kg PO QD, Term Animals): 0.576 (0.03) g
- glomerulus diameter, reduction vs Vehicle Disease Controls ([1]; 1 mg/kg PO QD, all animals): 43%
- percent of glomeruli with crescents, reduction ([1]; 1 mg/kg PO QD, all animals): 97%
- serum clinical chemistries vs Vehicle Disease Controls ([1]; 1 mg/kg PO QD, all animals): significantly increased albumin (ALB), glucose (GLU), and sodium/potassium ratio (Na/K) and significantly reduced blood urea nitrogen (BUN), BUN/creatinine, phosphorus (P), potassium (K), cholesterol (CHOL), and amylase (AMY)
- percent of glomeruli with crescents, reduction [1, 3]: 90%
- serum clinical chemistries vs Vehicle Disease Controls [1, 3]: significantly reduced BUN and BUN/creatinine
- Percent Survival ([1]; 5 mg/kg PO QD): 90%
- mice that died or were sacrificed moribund prior to study termination ([1]; 5 mg/kg PO QD): 1 of 10
- Histopathology Glomerulus Diameter ([1]; 5 mg/kg PO QD, All Animals): *80.53 (5.64)
- Histopathology Interstitial Inflammation ([1]; 5 mg/kg PO QD, All Animals): 1.98 (0.29)
- Histopathology Summed Score ([1]; 5 mg/kg PO QD, All Animals): *5.60 (0.98)
- Kidney (paired) Weight (g) ([1]; 5 mg/kg PO QD, All Animals): 0.544 (0.02) g
- Change in Body Weight (g) wk 1-12 ([1]; 5 mg/kg PO QD, Term Animals): 7.01 (0.67) g
- Histopathology Glomerulus Diameter ([1]; 5 mg/kg PO QD, Term Animals): *80.17 (6.29)
- Histopathology Interstitial Inflammation ([1]; 5 mg/kg PO QD, Term Animals): 1.97 (0.33)
- Histopathology Summed Score ([1]; 5 mg/kg PO QD, Term Animals): *5.50 (1.08)
- Kidney (paired) Weight (g) ([1]; 5 mg/kg PO QD, Term Animals): *0.531 (0.02) g
- glomerulus diameter, reduction ([1]; 5 mg/kg PO QD, all animals): 60%
- glomerulus score, reduction ([1]; 5 mg/kg PO QD, all animals): 58%
- percent of glomeruli with crescents, reduction ([1]; 5 mg/kg PO QD, all animals): 99%
- protein cast score, reduction ([1]; 5 mg/kg PO QD, all animals): 92%
- serum clinical chemistries vs Vehicle Disease Controls ([1]; 5 mg/kg PO QD, all animals): significantly increased ALB, GLU, calcium (CA), and Na/K and significantly reduced BUN, BUN/creatinine, K, CHOL, and AMY
- summed histopathology scores, reduction ([1]; 5 mg/kg PO QD, all animals): 63%
- vasculitis, reduction ([1]; 5 mg/kg PO QD, all animals): 52%
- absolute kidney weights, reduction vs Vehicle Disease Controls ([1]; 5 mg/kg PO QD): 16%
- absolute mesenteric lymph node weights, reduction vs Vehicle Disease Controls ([1]; 5 mg/kg PO QD): 52%
- glomerulus diameter, reduction [1, 4]: 46%
- percent of glomeruli with crescents, reduction [1, 4]: 98%
- protein cast score, reduction [1, 4]: 90%
- serum clinical chemistries vs Vehicle Disease Controls [1, 4]: significantly increased ALB, albumin/globulin ratio (A/G), GLU and Na/K and significantly reduced BUN, BUN/creatinine, and K
- summed histopathology scores, reduction [1, 4]: 54%
- Percent Survival ([1]; 25 mg/kg PO QD): 100%
- Histopathology Glomerulus Diameter ([1]; 25 mg/kg PO QD, All Animals): *74.78 (1.62)
- Histopathology Interstitial Inflammation ([1]; 25 mg/kg PO QD, All Animals): *1.53 (0.15)
- Histopathology Summed Score ([1]; 25 mg/kg PO QD, All Animals): *3.88 (0.34)
- Kidney (paired) Weight (g) ([1]; 25 mg/kg PO QD, All Animals): 0.511 (0.01) g
- Change in Body Weight (g) wk 1-12 ([1]; 25 mg/kg PO QD, Term Animals): 6.90 (0.56) g
- Histopathology Glomerulus Diameter ([1]; 25 mg/kg PO QD, Term Animals): *74.78 (1.62)
- Histopathology Interstitial Inflammation ([1]; 25 mg/kg PO QD, Term Animals): *1.53 (0.15)
- Histopathology Summed Score ([1]; 25 mg/kg PO QD, Term Animals): *3.88 (0.34)
- Kidney (paired) Weight (g) ([1]; 25 mg/kg PO QD, Term Animals): *0.511 (0.01) g
- glomerulus crescent score, reduction ([1]; 25 mg/kg PO QD, all animals): 100%
- glomerulus diameter, reduction ([1]; 25 mg/kg PO QD, all animals): 73%
- glomerulus score, reduction ([1]; 25 mg/kg PO QD, all animals): 76%
- interstitial inflammation, reduction ([1]; 25 mg/kg PO QD, all animals): 59%
- percent of glomeruli with crescents, reduction ([1]; 25 mg/kg PO QD, all animals): 100%
- protein cast score, reduction ([1]; 25 mg/kg PO QD, all animals): 98%
- serum clinical chemistries vs Vehicle Disease Controls ([1]; 25 mg/kg PO QD, all animals): significantly increased ALB, GLU, calcium (CA), and Na/K and significantly reduced BUN, BUN/creatinine, K, CHOL, and AMY
- summed histopathology scores, reduction ([1]; 25 mg/kg PO QD, all animals): 75%
- vasculitis, reduction ([1]; 25 mg/kg PO QD, all animals): 52%
- urine protein scores vs Vehicle Disease Controls ([1]; 25 mg/kg PO QD, all animals, mouse age 14-15 and 21-22): significantly reduced
- absolute kidney weights, reduction vs Vehicle Disease Controls ([1]; 25 mg/kg PO QD): 19%
- absolute mesenteric lymph node weights, reduction vs Vehicle Disease Controls ([1]; 25 mg/kg PO QD): 49%
- glomerulus crescent score, reduction [1, 5]: 100%
- glomerulus diameters, reduction [1, 5]: 63%
- glomerulus score, reduction [1, 5]: 72%
- interstitial inflammation, reduction [1, 5]: 51%
- percent of glomeruli with crescents, reduction [1, 5]: 100%
- protein cast score, reduction [1, 5]: 97%
- serum clinical chemistries vs Vehicle Disease Controls [1, 5]: significantly increased ALB and CA and significantly reduced BUN and BUN/creatinine
- summed histopathology scores, reduction [1, 5]: 68%
- vasculitis, reduction [1, 5]: 47%
- urine protein scores vs Vehicle Disease Controls ([1]; 25 mg/kg PO QD, term animals only, mouse age 22): significantly reduced
- anti-dsDNA IgG levels vs Vehicle Disease Controls ([1]; 1, 5 or 25 mg/kg PO QD): not significantly affected
- body weight change vs Vehicle Disease Controls ([1]; 1, 5 or 25 mg/kg PO QD): did not differ significantly
- cumulative lymph node weights vs Vehicle Disease Controls ([1]; 1, 5 or 25 mg/kg PO QD): did not differ significantly
- lymphadenopathy scores vs Vehicle Disease Controls ([1]; 1, 5 or 25 mg/kg PO QD): not significantly affected
- skin lesion scores vs Vehicle Disease Controls ([1]; 1, 5 or 25 mg/kg PO QD): not significantly affected
- spleen weights vs Vehicle Disease Controls ([1]; 1, 5 or 25 mg/kg PO QD): did not differ significantly
- percentage BTK occupancy (BTK; 100 mg BID compared with any QD dosing schedule): higher percentage BTK occupancy
- resynthesis of BTK in CLL tumor cells (BTK; 100 mg QD compared with 100 mg BID): more rapid than after 100 mg BID dosing
- BTK occupancy in peripheral blood compartment (BTK; 3-4 hours post dose, all treated subjects): full BTK occupancy
- BTK target occupancy in circulating tumor cells throughout the dosing interval (BTK; total daily doses above 200 mg, once-daily or twice-daily): > 90%
- Cmax as fraction of the AUC0-18 value ([2]; dietary 100 and 500 ppm in chow, Day 14): 1/10
- Cmax ([2]; rat, plasma, oral gavage 30 mg/kg/day, Day 14, male rats): 506 ng/mL
- AUC(0-t) ([2]; rat, plasma, oral gavage 30 mg/kg/day, Day 14, male rats, read-out: AUC0-12): 864 ng·h/mL
